According to PMC11571207, “Stereorandomized Oncocins with Preserved Ribosome Binding and Antibacterial Activity” (Journal of Medicinal Chemistry, 2024):
Where two headings read alike, the source gives them in different places. No end group written: not given here.

Tests used:
E. cloacae = assay: microbe, parasite or virus in culture; details: for MIC E. cloacae, 12.5% MHB: 12.5% MHB pH 7.4; for MIC E. cloacae, 12.5% MHB / MIC E. cloacae, full MHB: 16–20 h at 37 °C; for MIC E. cloacae, full MHB: full MHB pH 7.4; for MIC E. cloacae: supplement CSV
In short: (§1)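 Minimal inhibitory concentrations come from broth microdilution in MH medium, with a top peptide concentration of 64 μg/mL halved serially.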

K. pneumoniae OXA-48 = assay: microbe, parasite or virus in culture; details: for MIC K. pneumoniae OXA-48, 12.5% MHB / MIC K. pneumoniae OXA-48, full MHB: carbapenem-resistant, 16–20 h at 37 °C; for MIC K. pneumoniae OXA-48, 12.5% MHB: 12.5% MHB pH 7.4; for MIC K. pneumoniae OXA-48, full MHB: full MHB pH 7.4; for MIC K. pneumoniae OXA-48: supplement CSV
In short: as §1

[1] = tested on: P. aeruginosa PA14 2P4 (pmrB); assay: microbe, parasite or virus in culture; details: for MIC P. aeruginosa PA14 2P4 (pmrB), 12.5% MHB / MIC P. aeruginosa PA14 2P4 (pmrB), full MHB: polymyxin B resistant strain, 16–20 h at 37 °C; for MIC P. aeruginosa PA14 2P4 (pmrB), 12.5% MHB: 12.5% MHB pH 7.4; for MIC P. aeruginosa PA14 2P4 (pmrB), full MHB: full MHB pH 7.4; for MIC P. aeruginosa PA14 2P4: supplement CSV
In short: as §1

P. aeruginosa PA14 = assay: microbe, parasite or virus in culture; details: for MIC P. aeruginosa PA14, 12.5% MHB: 12.5% MHB pH 7.4; for MIC P. aeruginosa PA14, 12.5% MHB / MIC P. aeruginosa PA14, full MHB: 16–20 h at 37 °C, two different duplicate MIC determinations; for MIC P. aeruginosa PA14, full MHB: full MHB pH 7.4; for MIC P. aeruginosa PA14: supplement CSV
In short: as §1

P. aeruginosa ZEM-1A = assay: microbe, parasite or virus in culture; details: for MIC P. aeruginosa ZEM-1A, 12.5% MHB / MIC P. aeruginosa ZEM-1A, full MHB: clinical isolate, 16–20 h at 37 °C, cells marked c: single measurement (in duplicates); for MIC P. aeruginosa ZEM-1A, 12.5% MHB: 12.5% MHB pH 7.4; for MIC P. aeruginosa ZEM-1A, full MHB: full MHB pH 7.4; for MIC P. aeruginosa ZEM-1A: supplement CSV
In short: as §1

P. aeruginosa ZEM9A = assay: microbe, parasite or virus in culture; details: for MIC P. aeruginosa ZEM9A, 12.5% MHB / MIC P. aeruginosa ZEM9A, full MHB: clinical isolate, 16–20 h at 37 °C; for MIC P. aeruginosa ZEM9A, 12.5% MHB: 12.5% MHB pH 7.4; for MIC P. aeruginosa ZEM9A, full MHB: full MHB pH 7.4; for MIC P. aeruginosa ZEM9A: supplement CSV
In short: as §1

E. coli BW25113 WT = details: Table S1, 16-20 h at 37 °C; for MIC E. coli BW25113 WT, 12.5% MH: 12.5% Müller-Hinton medium pH 7.4; for MIC E. coli BW25113 WT, Full MH: full Müller-Hinton medium pH 7.4
Protocol: (§2) Minimum inhibitory concentration assay
(§3) Antimicrobial activity was assayed against P. aeruginosa PAO1, K. pneumoniae NCTC418, E. coli W3110, A. baumannii ATCC 19606, methicillin-resistant S. aureus COL (MRSA), and for selected peptides on P. aeruginosa PA14 and the polymyxin-B-resistant derivative PA14 2P4, as well as the clinical isolates ZEM-1A and ZEM9A, K. pneumoniae OXA-48, S. aureus Newman, Enterobacter cloacae and Burkholderia cenocepacia. The minimal inhibitory concentration (MIC) was determined by using broth microdilution method. A colo ny of bacteria was picked and grown in Luria-Bertani (LB) medium overnight at 37°C. For E. coli BW25113 sbmA::kan the medium was supplemented with 25 mg/L of kanamycin. The next day, the culture was then regrown in LB medium to log phase (OD600 = 0.6 to 0.8), which lasted approximately 4 h, and diluted to an OD600 of 0.022 in the desired medium. Stock solutions of 1 mg/mL of the samples were prepared in sterilized milliQ water and diluted to the beginning concentration of 64 μg/mL in 300 μL Mueller Hinton (MH)-medium. The diluted samples were added to first well of 96-well microtiter plate (TPP, untreated, Faust Laborbedarf, AG, Schaffhausen) and diluted serially by ½. Finally, 4 μL of the bacterial suspension was inoculated into the sample solutions (150 μL/well) with a final inoculation of about 5∙10^5 CFU/mL. The plates were then incubated at 37°C for 15-18h. For each assay, sterility (broth only) and growth control (broth with bacterial inoculum, without antibiotics) were checked with two columns in the plate. The next day, 15 μL of 3-(4,5-dimethylthiazol-2-yl)-2,5-diphenyltetrazolium bromide (MTT) was added to each well of the plate, such a way that MIC was defined as the lowest concentration of the peptide that inhibited visible growth of the tested […]
(§4) Table S1. Activity of stereorandomized and diastereomeric oncocins against E. coli BW25113 WT and BW25113 sbmA::kan mutant in full and 12.5% MH, at pH 7.4. […]
(§5) a) Minimum inhibitory concentration (MIC, μg/mL) was determined on E. coli BW25113 WT and […]

[2] = tested on: E. coli BW25113 sbmA::kan; details: Table S1, sbmA::kan mutant, 16-20 h at 37 °C; for MIC E. coli BW25113 SbmA-, 12.5% MH: 12.5% Müller-Hinton medium pH 7.4; for MIC E. coli BW25113 SbmA-, Full MH: full Müller-Hinton medium pH 7.4
Protocol: as §2, §3, §4, §5

[3] = tested on: P. aeruginosa PA14 4.18 (pmrB); details: for MIC P. aeruginosa PA14 4.18 (pmrB), 12.5% MHB / MIC P. aeruginosa PA14 4.18 (pmrB), full MHB: polymyxin B resistant strain, 16–20 h at 37 °C; for MIC P. aeruginosa PA14 4.18 (pmrB), 12.5% MHB: 12.5% MHB pH 7.4; for MIC P. aeruginosa PA14 4.18 (pmrB), full MHB: full MHB pH 7.4; for MIC P. aeruginosa PA14 4.18: supplement CSV
human red blood cells = assay: Hemolysis assay, minimum hemolytic concentration; details: for Haemolysis on hRBC, MHC: 2.5% human red blood cells (final) in 10 mM phosphate, 150 mM NaCl, pH 7.4, 25 °C, 4 h, visual inspection; for MHC human red blood cells: supplement CSV

| Sequence | MIC E. cloacae, 12.5% MHB (E. cloacae) [µg/mL] | MIC E. cloacae, full MHB (E. cloacae) [µg/mL] | MIC E. cloacae (E. cloacae; 12.5% MH pH 7.4) [µg/mL] | MIC E. cloacae (E. cloacae; full MH pH 7.4) [µg/mL] | MIC K. pneumoniae OXA-48, 12.5% MHB (K. pneumoniae OXA-48) | MIC K. pneumoniae OXA-48, full MHB (K. pneumoniae OXA-48) | MIC K. pneumoniae OXA-48 (K. pneumoniae OXA-48; 12.5% MH pH 7.4) [µg/mL] | MIC K. pneumoniae OXA-48 (K. pneumoniae OXA-48; full MH pH 7.4) [µg/mL] | MIC P. aeruginosa PA14 2P4 (pmrB), 12.5% MHB [1] [µg/mL] | MIC P. aeruginosa PA14 2P4 (pmrB), full MHB [1] [µg/mL] | MIC P. aeruginosa PA14 2P4 ([1]; 12.5% MH pH 7.4) [µg/mL] | MIC P. aeruginosa PA14 2P4 ([1]; full MH pH 7.4) [µg/mL] | MIC P. aeruginosa PA14, 12.5% MHB (P. aeruginosa PA14) | MIC P. aeruginosa PA14, full MHB (P. aeruginosa PA14) | MIC P. aeruginosa PA14 (P. aeruginosa PA14; 12.5% MH pH 7.4) [µg/mL] | MIC P. aeruginosa PA14 (P. aeruginosa PA14; full MH pH 7.4) [µg/mL] | MIC P. aeruginosa ZEM-1A, 12.5% MHB (P. aeruginosa ZEM-1A) | MIC P. aeruginosa ZEM-1A, full MHB (P. aeruginosa ZEM-1A) | MIC P. aeruginosa ZEM-1A (P. aeruginosa ZEM-1A; 12.5% MH pH 7.4) [µg/mL] | MIC P. aeruginosa ZEM9A, 12.5% MHB (P. aeruginosa ZEM9A) | further results |
| --- | --- | --- | --- | --- | --- | --- | --- | --- | --- | --- | --- | --- | --- | --- | --- | --- | --- | --- | --- | --- | --- |
| VDKPPYLPRPRPPRRIYNR [sr9Cterm-Onc] (VDKPPYLPRPRPPRRIYNR-NH2; also: residues 11-19 stereorandomized (1:1 L/D mixture)) | 1 | 32 | 1 | 32 | 4 µg/mL | 32 µg/mL | 4 | 32 | 4 | > 64 | 4 | >64 | 8 µg/mL | > 64 µg/mL | 8 | >64 | 4 to 8 µg/mL | 64 µg/mL | 4 to 8 | 8 µg/mL | MIC P. aeruginosa ZEM9A, full MHB (P. aeruginosa ZEM9A): > 64 µg/mL; MIC P. aeruginosa ZEM9A (P. aeruginosa ZEM9A; 12.5% MH pH 7.4): 8 µg/mL; MIC P. aeruginosa ZEM9A (P. aeruginosa ZEM9A; full MH pH 7.4): >64 µg/mL; MIC E. coli BW25113 WT, 12.5% MH (E. coli BW25113 WT): 4 µg/mL; MIC E. coli BW25113 WT, Full MH (E. coli BW25113 WT): 32 µg/mL; MIC E. coli BW25113 SbmA-, 12.5% MH [2]: 8 µg/mL; MIC E. coli BW25113 SbmA-, Full MH [2]: > 64 µg/mL; MIC P. aeruginosa PA14 4.18 (pmrB), 12.5% MHB [3]: 8 µg/mL; MIC P. aeruginosa PA14 4.18 (pmrB), full MHB [3]: 64 µg/mL; MIC P. aeruginosa PA14 4.18 ([3]; 12.5% MH pH 7.4): 8 µg/mL; MIC P. aeruginosa PA14 4.18 ([3]; full MH pH 7.4): 64 µg/mL; Haemolysis on hRBC, MHC (human red blood cells): >1000 µg/mL; MHC human red blood cells (human red blood cells): >1000 µg/mL |
| VDKPPYLPRPRPPRRIYNR [sr14Nterm-Onc] (VDKPPYLPRPRPPRRIYNR-NH2; also: residues 1-14 stereorandomized (1:1 L/D mixture)) | 8 | > 64 | 8 | >64 | >64/>64 μg/mL | >64/>64 μg/mL | >64 | >64 | 16 | > 64 | 16 | >64 | >64/64 μg/mL | >64/64 μg/mL | 64 | >64 | >64/>64 ^c μg/mL | >64/>64 ^c μg/mL | >64 | >64/64 μg/mL | MIC P. aeruginosa ZEM-1A (P. aeruginosa ZEM-1A; full MH pH 7.4): >64 µg/mL; MIC P. aeruginosa ZEM9A, full MHB (P. aeruginosa ZEM9A): >64/64 μg/mL; MIC P. aeruginosa ZEM9A (P. aeruginosa ZEM9A; 12.5% MH pH 7.4): 64 µg/mL; MIC P. aeruginosa ZEM9A (P. aeruginosa ZEM9A; full MH pH 7.4): >64 µg/mL; MIC E. coli BW25113 WT, 12.5% MH (E. coli BW25113 WT): 16 µg/mL; MIC E. coli BW25113 WT, Full MH (E. coli BW25113 WT): > 64 µg/mL; MIC E. coli BW25113 SbmA-, 12.5% MH [2]: 16 µg/mL; MIC E. coli BW25113 SbmA-, Full MH [2]: > 64 µg/mL; MIC P. aeruginosa PA14 4.18 (pmrB), 12.5% MHB [3]: 32 µg/mL; MIC P. aeruginosa PA14 4.18 (pmrB), full MHB [3]: > 64 µg/mL; MIC P. aeruginosa PA14 4.18 ([3]; 12.5% MH pH 7.4): 32 µg/mL; MIC P. aeruginosa PA14 4.18 ([3]; full MH pH 7.4): >64 µg/mL; Haemolysis on hRBC, MHC (human red blood cells): >1000 µg/mL; MHC human red blood cells (human red blood cells): >1000 µg/mL |
